Measured values taken from publication PMC6201685 (Biochemistry, 2016).

What was measured:
Rv2671 [1] = target: T1, Rv2671 (Mycobacterium tuberculosis, UniProt P71968); assay type: biochemical
Rv2671 [2] = target: T1, Rv2671; assay: X-ray cocrystal structure; assay type: biochemical
[3] = tested on: Nc1nc2c(c(=O)[nH]1)N=C(CNc1ccc(C(=O)N[C@@H](CCC(=O)O)C(=O)O)cc1)CN2; assay: purified protein
[4] = tested on: Nc1nc2c(c(=O)[nH]1)N=C(CNc1ccc(C(=O)O)cc1)CN2; assay: purified protein

In the case of `NC(=O)C1=CN([C@@H]2O[C@H](COP(=O)(O)OP(=O)(O)OC[C@H]3O[C@@H](n4cnc5c(N)ncnc54)[C@H](OP(=O)(O)O)[C@@H]3O)[C@@H](O)[C@H]2O)C=CC1` [NADPH], the “cosubstrate in DHF reduction assay with purified enzyme (340 nm, HPLC)” value (Rv2671 [1]) is reported as “Tetrahydrofolate, the product of the reaction, was observed by HPLC spectrometry after the addition of DHF and NADPH to Rv2671”.
For `COc1cc(NCc2ccc3nc(N)nc(N)c3c2C)cc(OC)c1OC` [TMQ, trimetrexate], the IC50 (Rv2671 [2]) was 280 ± 20 nM.
With “Rv2671 (Mycobacterium tuberculosis H37Rv)” the Km [3] was 136 ± 32 µM and the Km [4] was 180.2 ± 25.5 µM.
